The results in this text go back to ChEMBL document CHEMBL1629606, “In vitro and in vivo properties of ellagic acid in malaria treatment” (Antimicrob Agents Chemother, 2009).

One may read the IC50 as the concentration at which inhibition is half-maximal. The low end stands for higher potency, the high end for lower potency. A word on the inhibition in vivo: it is the share of the control response that was lost under treatment.

Series [1] has as its system Plasmodium falciparum. Kind of series: Antiplasmodial activity against chloroquine-resistant Plasmodium falciparum W2 assessed as 50% revertant concentration required for chloroquine susceptibility. Format: functional.
For series [2], the system named is Plasmodium falciparum. Kind of series: Antiplasmodial activity against Plasmodium falciparum F32. In kind it is functional, organism-based.
Series [3] relates to Plasmodium falciparum. Kind of series: Antiplasmodial activity against chloroquine-resistant Plasmodium falciparum W2 in presence of chloroquine. In kind it is functional.
In a further series the test system is Vero. Kind of series: Cytotoxicity against Vero cells at 100 uM by MTS assay. In kind it is cell-based. The following applies: chlorocebus sabaeus.
For a further series, the system named is KB. Kind of series: Cytotoxicity against human KB cells at 100 uM by MTS assay. In kind it is cell-based. (In general: Tetrazolium assays rely on reduction of a dye to a coloured formazan, in cell work by metabolically active cells.)
Series [4] deals with Plasmodium vinckei petteri. Nature of the series: Antiplasmodial activity against Plasmodium vinckei petteri infected in Swiss mouse assessed as inhibition of parasite growth at 100 mg/kg/day, po measured on day 5 postinfection. Format: functional, organism-based.
The test system of series [5] is Plasmodium vinckei petteri. Kind of series: Antiplasmodial activity against Plasmodium vinckei petteri infected in Swiss mouse assessed as mortality at 100 mg/kg, po treated 4 days after infection measured on day 7 postinfection. In kind it is functional, organism-based. On the set-up: dose 100 mg/kg.
Series [6] concerns Plasmodium falciparum. Nature of the series: Antiplasmodial activity against Plasmodium falciparum Dd2. In kind it is functional, organism-based.
The test system of series [7] is Plasmodium vinckei petteri. Kind of series: Antiplasmodial activity against Plasmodium vinckei petteri infected in Swiss mouse assessed as inhibition of parasite growth at 1 mg/kg/day, po measured on day 4 postinfection. In kind it is functional, organism-based.
For series [8], the system named is Plasmodium falciparum. Kind of series: Antiplasmodial activity against Plasmodium falciparum FcM29. In kind it is functional, organism-based.
Series [9] relates to Mus musculus. Nature of the series: Toxicity in Swiss mouse at 250 mg/kg/day, ip for 4 days measured upto day 30. Format: organism-based. On the set-up: route intraperitoneal. The conditions noted are these: in vivo, 96 h.
The subject of series [10] is Mus musculus. Nature of the series: Toxicity in Swiss mouse at 250 mg/kg/day, po for 4 days measured upto day 30. Format: organism-based. On the set-up: route oral. The following applies: in vivo, 96 h.
Series [11] relates to Plasmodium falciparum. Kind of series: Antiplasmodial activity against chloroquine-resistant Plasmodium falciparum W2 in presence of mefloquine. Format: functional.
The test system of series [12] is Plasmodium vinckei petteri. Kind of series: Antiplasmodial activity against Plasmodium vinckei petteri infected in Swiss mouse assessed as survival at 10 mg/kg, ip treated 4 days before infection measured on day 9 postinfection. On the set-up: dose 10 mg/kg. In kind it is functional, organism-based.
Series [13] concerns Plasmodium vinckei petteri. Nature of the series: Antiplasmodial activity against Plasmodium vinckei petteri infected in Swiss mouse assessed as recrudescence of malaria at 50 mg/kg/day, ip measured upto day 60 postinfection. Format: functional, organism-based.
Series [14] concerns Plasmodium falciparum. Nature of the series: Antiplasmodial activity against Plasmodium falciparum W2. In kind it is functional, organism-based.
Series [15] concerns Plasmodium falciparum. Nature of the series: Antiplasmodial activity against chloroquine-resistant Plasmodium falciparum W2 in presence of atovaquone. In kind it is functional.
Series [16] has as its system Mus musculus. Nature of the series: Toxicity in Swiss mouse at 500 mg/kg/day, ip for 4 days measured upto day 30. In kind it is organism-based. Further details: route intraperitoneal. The conditions noted are these: in vivo, 96 h.
In a further series the test system is MRC5. Nature of the series: Cytotoxicity against human MRC5 cells at 100 uM by MTS assay. In kind it is cell-based. The conditions noted are these: mrc5, 100 µM.
The subject of series [17] is Mus musculus. Kind of series: Toxicity in Swiss mouse at 500 mg/kg/day, po for 4 days measured upto day 30. In kind it is organism-based. On the set-up: route oral. The following applies: in vivo, 96 h.
Series [18] concerns Plasmodium vinckei petteri. Nature of the series: Antiplasmodial activity against Plasmodium vinckei petteri infected in Swiss mouse assessed as inhibition of parasite growth at 50 mg/kg/day, po measured on day 4 postinfection. Format: functional, organism-based.
The subject of series [19] is Plasmodium falciparum. Nature of the series: Antiplasmodial activity against Plasmodium falciparum FcM29 assessed as inhibition of parasite growth at 180 nM in presence of 0.87 uM N-acetyl-L-cysteine. Format: functional, organism-based.
Series [20] relates to Plasmodium falciparum. Nature of the series: Antiplasmodial activity against chloroquine-resistant Plasmodium falciparum W2 in presence of artesunate. Format: functional.
Series [21] relates to Plasmodium vinckei petteri. Nature of the series: Antiplasmodial activity against Plasmodium vinckei petteri infected in Swiss mouse assessed as recrudescence of malaria at 100 mg/kg/day, ip measured upto day 60 postinfection. In kind it is functional, organism-based.
In series [22] the test system is Mus musculus. Nature of the series: Toxicity in Swiss mouse at 100 mg/kg/day, po for 4 days measured upto day 30. Format: organism-based. On the set-up: route oral. The following applies: in vivo, 96 h.
The next series concerns Monocyte. Nature of the series: Antioxidant activity in human Monocyte assessed as reduced in PMA-induced ROS production at 3.3 uM by chemiluminescence assay. In kind it is functional, cell-based.
For series [23], the system named is Mus musculus. Kind of series: Toxicity in Swiss mouse at 1000 mg/kg/day, po for 4 days measured upto day 30. In kind it is organism-based. On the set-up: route oral. The conditions noted are these: in vivo, 96 h.
Series [24] concerns Plasmodium falciparum. Nature of the series: Antiplasmodial activity against […] Plasmodium falciparum Dd2 assessed as 50% revertant concentration required for mefloquine resistant. Format: functional.
Series [25] concerns Plasmodium vinckei petteri. Nature of the series: Antiplasmodial activity against Plasmodium vinckei petteri infected in Swiss mouse assessed as inhibition of parasite growth at 100 mg/kg/day, ip measured on day 5 postinfection. Format: functional. The conditions noted are these: 120 h, route intraperitoneal.
For series [26], the system named is Plasmodium falciparum. Nature of the series: Antiplasmodial activity against chloroquine-resistant Plasmodium falciparum W2 in presence of artemisinin. Format: functional.
Series [27] relates to Plasmodium vinckei petteri. Kind of series: Antiplasmodial activity against Plasmodium vinckei petteri infected in Swiss mouse assessed as recrudescence of malaria at 5 mg/kg/day, ip measured upto day 60 postinfection. Format: functional, organism-based.
Series [28] concerns Plasmodium falciparum. Nature of the series: Antiplasmodial activity against Plasmodium falciparum FcB1. In kind it is functional, organism-based. The following applies: FcB1/Columbia.
In series [29] the test system is Mus musculus. Kind of series: Toxicity in Swiss mouse at 100 mg/kg/day, ip for 4 days measured upto day 30. In kind it is organism-based. Further details: route intraperitoneal. The following applies: in vivo, 96 h.
Series [30] concerns Plasmodium vinckei petteri. Nature of the series: Antiplasmodial activity against Plasmodium vinckei petteri infected in Swiss mouse assessed as survival at 10 mg/kg, ip treated 4 days before infection measured on day 6 postinfection. In kind it is functional, organism-based. Further details: dose 10 mg/kg.
Series [31] deals with Plasmodium vinckei petteri. Kind of series: Antiplasmodial activity against Plasmodium vinckei petteri infected in Swiss mouse assessed as inhibition of parasite growth at 50 mg/kg/day, ip measured on day 4 postinfection. The following applies: 96 h, route intraperitoneal. Format: functional.
The subject of series [32] is Mus musculus. Kind of series: Toxicity in Swiss mouse at 1000 mg/kg/day, ip for 4 days measured upto day 30. In kind it is organism-based. Further details: route intraperitoneal. The following applies: in vivo, 96 h.

The source made the active and inactive calls. The rule behind the calls is not given here.

As for `COc1ccc(CCN(C)CCCC(C#N)(c2ccc(OC)c(OC)c2)C(C)C)cc1OC` (stereo unspecified) [VERAPAMIL], the Activity in the series with Plasmodium falciparum [1] turned out to be 0.31 µM.
Take `O=c1oc2c(O)c(O)cc3c(=O)oc4c(O)c(O)cc1c4c23` [ELLAGIC ACID]: the IC50 was determined as 0.33 µM in the series with Plasmodium falciparum [2]; 0.105 µM in the series with Plasmodium falciparum [6]; 0.18 µM in the series with Plasmodium falciparum [8]; 0.33 µM in the series on Plasmodium falciparum [14]; 0.3 µM in the series on Plasmodium falciparum [28]. Besides, the FIC50 amounted to 0.63 in the series on Plasmodium falciparum [3]; 0.64 in the series on Plasmodium falciparum [11]; 0.53 in the series with Plasmodium falciparum [15]; 0.57 in the series on Plasmodium falciparum [20]; 1.26 in the series on Plasmodium falciparum [26]. Besides, the Activity entry in the series with Vero, in the series with KB, in the series with Mus musculus [9], with Mus musculus [10], with Mus musculus [16] and with MRC5 was “Non-toxic” in each case. In addition, the Activity result was “Non-toxic” with Mus musculus [17]; “Non-toxic” in the series on Mus musculus [22]; “Non-toxic” in the series with Mus musculus [23]; 5 ng/mL in the series with Plasmodium falciparum [24]; “Non-toxic” with Mus musculus [29]; “Non-toxic” in the series with Mus musculus [32]. In addition, the result in series [4], in series [7], in series [12], in series [13], in series [18] and in [21] was Active. Moreover, the result (with Monocyte; in series [27]; in series [30]) was Active. Moreover, the result (in series [5]; in the series with Plasmodium falciparum [19]) was inactive. In addition, in series [25], the inhibition in vivo at 100 mg/kg/day came out at 100%. For the same compound, the inhibition in vivo at 50 mg/kg/day in [31] came out at 100%.
As for `C[C@@H]1CC[C@H]2[C@@H](C)C(=O)O[C@@H]3O[C@@]4(C)CC[C@@H]1[C@]32OO4` [ARTEMISININ], the IC50 in the series with Plasmodium falciparum [2] is 0.0125 µM; in the series on Plasmodium falciparum [6] it was 0.0135 µM; with Plasmodium falciparum [8] it was 0.0122 µM; in the series with Plasmodium falciparum [14], 0.0133 µM.
In the case of `OC1(c2ccc(Cl)c(C(F)(F)F)c2)CCN(CCCC(c2ccc(F)cc2)c2ccc(F)cc2)CC1` [PENFLURIDOL], the Activity in the series with Plasmodium falciparum [24] was found to be 96 ng/mL.
